# According to ChEMBL document CHEMBL4043245, “Synthesis, characterization, and cellular localization of a fluorescent probe of the antimalarial 8-aminoquinoline primaquine” (Bioorg Med Chem Lett, 2017):
# pIC50: −log10 of the molar value.
# Tests used:
# Erythrocyte = test: Drug uptake in human erythrocytes after 30 to 45 mins by mitotracker red dye based flow cytometric method; assay type: ADME, cell-based
# [1] = Drug uptake in human HepG2 cells infected with liver stage chloroquine-susceptible Plasmodium berghei 1052 C11 by mitotracker red dye based fluorescence microscopic analysis; assay type: ADME, cell-based
# Plasmodium falciparum [2] = test: Antimalarial activity against asexual blood stage of chloroquine-susceptible Plasmodium falciparum 3D7 infected in human erythrocytes by [3H]-Hypoxanthine uptake assay; assay type: functional, cell-based
# Plasmodium falciparum [3] = test: Antimalarial activity against asexual blood stage of chloroquine-resistant Plasmodium falciparum W2 infected in human erythrocytes by [3H]-Hypoxanthine uptake assay; assay type: functional, cell-based
# Plasmodium falciparum [4] = test: Antimalarial activity against asexual blood stage of chloroquine-susceptible Plasmodium falciparum D6 infected in human erythrocytes by [3H]-Hypoxanthine uptake assay; assay type: functional, cell-based
# Plasmodium berghei = test: Antiplasmodial activity against liver stage chloroquine-susceptible Plasmodium berghei 1052 C11 infected in HepG2 cells after 44 hrs by TopCount microplate luminescence assay; assay type: functional, cell-based; conditions: 1052 C11, HepG2, 44 h
# HepG2 = test: Cytotoxicity against human HepG2 cells after 24 hrs by MTS assay; assay type: cell-based; conditions: HepG2, 24 h
# [5] = Drug uptake in cytoplasm of asexual blood stage of Plasmodium falciparum D10-ACPLEADER-GFP ring forms infected in human erythrocytes at 150 uM after 30 to 45 mins by mitotracker Red dye based fluorescence microscopic analysis; assay type: ADME, cell-based
# [6] = Drug uptake in cytoplasm of asexual blood stage of Plasmodium falciparum D10-ACPLEADER-GFP trophozoite forms infected in human erythrocytes at 150 uM after 30 to 45 mins by mitotracker Red dye based fluorescence microscopic analysis; assay type: ADME, cell-based
# [7] = Drug uptake in cytoplasm of asexual blood stage of Plasmodium falciparum D10-ACPLEADER-GFP schizont forms infected in human erythrocytes at 150 uM after 30 to 45 mins by mitotracker Red dye based fluorescence microscopic analysis; assay type: ADME, cell-based
# [8] = Drug uptake in apicoplast of asexual blood stage of Plasmodium falciparum D10-ACPLEADER-GFP ring forms infected in human erythrocytes at 150 uM after 30 to 45 mins by mitotracker Red dye based fluorescence microscopic analysis; assay type: ADME, cell-based
# [9] = Drug uptake in apicoplast of asexual blood stage of Plasmodium falciparum D10-ACPLEADER-GFP trophozoite forms infected in human erythrocytes at 150 uM after 30 to 45 mins by mitotracker Red dye based fluorescence microscopic analysis; assay type: ADME, cell-based
# [10] = Drug uptake in apicoplast of asexual blood stage of Plasmodium falciparum D10-ACPLEADER-GFP schizont forms infected in human erythrocytes at 150 uM after 30 to 45 mins by mitotracker Red dye based fluorescence microscopic analysis; assay type: ADME, cell-based
# [11] = Drug uptake in relict plastid of asexual blood stage of Plasmodium falciparum D10-ACPLEADER-GFP ring forms infected in human erythrocytes at 150 uM after 30 to 45 mins by mitotracker Red dye based fluorescence microscopic analysis; assay type: ADME, cell-based
# [12] = Drug uptake in relict plastid of asexual blood stage of Plasmodium falciparum D10-ACPLEADER-GFP trophozoite forms infected in human erythrocytes at 150 uM after 30 to 45 mins by mitotracker Red dye based fluorescence microscopic analysis; assay type: ADME, cell-based
# [13] = Drug uptake in relict plastid of asexual blood stage of Plasmodium falciparum D10-ACPLEADER-GFP schizont forms infected in human erythrocytes at 150 uM after 30 to 45 mins by mitotracker Red dye based fluorescence microscopic analysis; assay type: ADME, cell-based
# [14] = Drug uptake in mitochondria of asexual blood stage of Plasmodium falciparum D10-ACPLEADER-GFP ring forms infected in human erythrocytes at 150 uM after 30 to 45 mins by mitotracker Red dye based fluorescence microscopic analysis; assay type: ADME, cell-based
# [15] = Drug uptake in mitochondria of asexual blood stage of Plasmodium falciparum D10-ACPLEADER-GFP trophozoite forms infected in human erythrocytes at 150 uM after 30 to 45 mins by mitotracker Red dye based fluorescence microscopic analysis; assay type: ADME, cell-based
# [16] = Drug uptake in mitochondria of asexual blood stage of Plasmodium falciparum D10-ACPLEADER-GFP schizont forms infected in human erythrocytes at 150 uM after 30 to 45 mins by mitotracker Red dye based fluorescence microscopic analysis; assay type: ADME, cell-based
# [17] = Drug uptake in nucleus of asexual blood stage of Plasmodium falciparum D10-ACPLEADER-GFP ring forms infected in human erythrocytes at 150 uM after 30 to 45 mins by mitotracker Red dye based fluorescence microscopic analysis; assay type: ADME, cell-based
# [18] = Drug uptake in nucleus of asexual blood stage of Plasmodium falciparum D10-ACPLEADER-GFP trophozoite forms infected in human erythrocytes at 150 uM after 30 to 45 mins by mitotracker Red dye based fluorescence microscopic analysis; assay type: ADME, cell-based
# [19] = Drug uptake in nucleus of asexual blood stage of Plasmodium falciparum D10-ACPLEADER-GFP schizont forms infected in human erythrocytes at 150 uM after 30 to 45 mins by mitotracker Red dye based fluorescence microscopic analysis; assay type: ADME, cell-based
# [20] = Drug uptake in food vacuole of asexual blood stage of Plasmodium falciparum D10-ACPLEADER-GFP ring forms infected in human erythrocytes at 150 uM after 30 to 45 mins by mitotracker Red dye based fluorescence microscopic analysis; assay type: ADME, cell-based
# [21] = Drug uptake in food vacuole of asexual blood stage of Plasmodium falciparum D10-ACPLEADER-GFP trophozoite forms infected in human erythrocytes at 150 uM after 30 to 45 mins by mitotracker Red dye based fluorescence microscopic analysis; assay type: ADME, cell-based
# [22] = Drug uptake in food vacuole of asexual blood stage of Plasmodium falciparum D10-ACPLEADER-GFP schizont forms infected in human erythrocytes at 150 uM after 30 to 45 mins by mitotracker Red dye based fluorescence microscopic analysis; assay type: ADME, cell-based
# [23] = Drug uptake in cytoplasm of Plasmodium falciparum D10-ACPLEADER-GFP gametocyte stage 4 infected in human erythrocytes at 150 uM after 30 to 45 mins by mitotracker Red dye based fluorescence microscopic analysis; assay type: ADME, cell-based
# [24] = Drug uptake in cytoplasm of Plasmodium falciparum D10-ACPLEADER-GFP gametocyte stage 5 infected in human erythrocytes at 150 uM after 30 to 45 mins by mitotracker Red dye based fluorescence microscopic analysis; assay type: ADME, cell-based
# [25] = Drug uptake in food vacuole of Plasmodium falciparum D10-ACPLEADER-GFP gametocyte stage 4 infected in human erythrocytes at 150 uM after 30 to 45 mins by mitotracker Red dye based fluorescence microscopic analysis; assay type: ADME, cell-based
# [26] = Drug uptake in food vacuole of Plasmodium falciparum D10-ACPLEADER-GFP gametocyte stage 5 infected in human erythrocytes at 150 uM after 30 to 45 mins by mitotracker Red dye based fluorescence microscopic analysis; assay type: ADME, cell-based
# [27] = Drug uptake in mitochondria of Plasmodium falciparum D10-ACPLEADER-GFP gametocyte stage 4 infected in human erythrocytes at 150 uM after 30 to 45 mins by mitotracker Red dye based fluorescence microscopic analysis; assay type: ADME, cell-based
# [28] = Drug uptake in mitochondria of Plasmodium falciparum D10-ACPLEADER-GFP gametocyte stage 5 infected in human erythrocytes at 150 uM after 30 to 45 mins by mitotracker Red dye based fluorescence microscopic analysis; assay type: ADME, cell-based
# [29] = Drug uptake in cytoplasm of asexual blood stage of Plasmodium falciparum D10-ACPLEADER-GFP trophozoite forms infected in human erythrocytes at 150 uM after 30 to 45 mins in presence of primaquine by mitotracker Red dye based fluorescence microscopic analysis; assay type: ADME, cell-based
smiles,measurement,setting,value
O=c1ccc2ccccc2o1 [COUMARIN],Drug uptake,Erythrocyte,Not Active
COc1cc(NC(C)CCCNC(=O)CCCc2cc(=O)oc3cc(O)ccc23)c2ncccc2c1 (stereo not drawn),Drug uptake,[1],Not Active
same,pIC50,Plasmodium falciparum [2],4.98
same,pIC50,Plasmodium falciparum [3],5.45
same,pIC50,Plasmodium falciparum [4],5.35
same,pIC50,Plasmodium berghei,4.68
same,pIC50,HepG2,4.35
same,Drug uptake,[5],Active
same,Drug uptake,[6],Active
same,Drug uptake,[7],Active
same,Drug uptake,[8],Not Active
same,Drug uptake,[9],Not Active
same,Drug uptake,[10],Not Active
same,Drug uptake,[11],Not Active
same,Drug uptake,[12],Not Active
same,Drug uptake,[13],Not Active
same,Drug uptake,[14],Not Active
same,Drug uptake,[15],Not Active
same,Drug uptake,[16],Not Active
same,Drug uptake,[17],Not Active
same,Drug uptake,[18],Not Active
same,Drug uptake,[19],Not Active
same,Drug uptake,[20],Not Active
same,Drug uptake,[21],Not Active
same,Drug uptake,[22],Not Active
same,Drug uptake,Erythrocyte,Not Active
same,Drug uptake,[23],Active
same,Drug uptake,[24],Active
same,Drug uptake,[25],Not Active
same,Drug uptake,[26],Not Active
same,Drug uptake,[27],Not Active
same,Drug uptake,[28],Not Active
same,Drug uptake,[29],Not Active
COc1cc(NC(C)CCCN)c2ncccc2c1 (stereo not drawn) [PRIMAQUINE],pIC50,Plasmodium falciparum [2],5.24
same,pIC50,Plasmodium falciparum [3],5.63
same,pIC50,Plasmodium falciparum [4],5.29
same,pIC50,Plasmodium berghei,4.76
same,pIC50,HepG2,4.00
